Laboratory results as given in patent publication US20230146675A1, “PYRIMIDO[5,4-d]PYRIMIDINE DERIVATIVES AS ENT INHIBITORS FOR THE TREATMENT OF CANCERS, AND COMBINATION THEREOF WITH ADENOSINE RECEPTOR ANTAGONISTS” (ITEOS BELGIUM SA, priority 2020, published 2023).

These compounds were tested against T1, human ENT1 (Homo sapiens, UniProt Q99808) (assay: ENT1 binding assay (competition with Sahenta-DY647 on JAR cells)). Settings: binned IC50.
T1 sequence (Q99808 1-456): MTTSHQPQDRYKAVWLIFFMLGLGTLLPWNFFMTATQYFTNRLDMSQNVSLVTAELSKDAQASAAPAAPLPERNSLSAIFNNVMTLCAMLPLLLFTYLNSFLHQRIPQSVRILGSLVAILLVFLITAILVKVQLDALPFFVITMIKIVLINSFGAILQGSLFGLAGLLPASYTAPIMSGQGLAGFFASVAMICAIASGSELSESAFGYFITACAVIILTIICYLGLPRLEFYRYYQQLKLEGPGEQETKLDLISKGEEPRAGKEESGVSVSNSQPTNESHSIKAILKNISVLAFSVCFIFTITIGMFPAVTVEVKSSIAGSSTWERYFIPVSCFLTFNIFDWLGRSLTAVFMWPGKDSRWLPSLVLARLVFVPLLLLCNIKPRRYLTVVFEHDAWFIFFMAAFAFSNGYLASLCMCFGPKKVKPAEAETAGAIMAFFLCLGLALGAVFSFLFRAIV
Parameters: JAR cells expressing ENT1 were bought from ATCC; host or cells: JAR cells
Procedure, shortened: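 JAR cells were incubated with test compounds and the fluorescent ligand Sahenta-DY647 in competition. Plates were washed twice by centrifugation (4 min, 400 rcf, 4 °C). Binding potency was derived from the final fluorescence.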

Structure (SMILES)	IC50
COCCN(CCOC)c1nc(N2CCC(OC)CC2)c2nc(N(CC(C)O)CC(C)O)nc(N3CCN(C)C(=O)C3)c2n1 (centres unmarked) [Compound 327, 4-(2-(bis(2-hydroxypropyl)amino)-6-(bis(2-methoxyethyl)amino)-8-(4-methoxypiperidin-1-yl)pyrimido[5,4-d]pyrimidin-4-yl)-1-methylpiperazin-2-one]	< 100 nM
COCCN(CCOC)c1nc(N2CCC(OC)CC2)c2nc(N(CCOC)CCOC)nc(NCC3CCCC3)c2n1 [Compound 55, N4-(cyclopentylmethyl)-N2,N2,N6,N6-tetrakis(2-methoxyethyl)-8-(4-methoxypiperidin-1-yl)pyrimido[5,4-d]pyrimidine-2,4,6-triamine]	100 to 500 nM
COCCN(CCOC)c1nc(N2CC[C@@H](F)C2)c2nc(N(CCOC)CCOC)nc(N3CCC(OC)CC3)c2n1 [Compound 103, (R)-4-(3-fluoropyrrolidin-1-yl)-N2,N2,N6,N6-tetrakis(2-methoxyethyl)-8-(4-methoxypiperidin-1-yl)pyrimido[5,4-d]pyrimidine-2,6-diamine]	100 to 500 nM
COCCN(Cc1ccc(C(=O)O)cc1)c1nc(N2CCN(C)C(=O)C2)c2nc(N(CCOC)CCOC)nc(N3CCC(OC)CC3)c2n1 [Compound 333, 4-(((6-(bis(2-methoxyethyl)amino)-8-(4-methoxypiperidin-1-yl)-4-(4-methyl-3-oxopiperazin-1-yl)pyrimido[5,4-d]pyrimidin-2-yl)(2-methoxyethyl)amino)methyl)benzoic acid]	500 to 1000 nM
CCCCNc1nc(N(CCOC)CCOC)nc2c(N3CCC(OC)CC3)nc(N(CCOC)CCOC)nc12 [Compound 54, N4-butyl-N2,N2,N6,N6-tetrakis(2-methoxyethyl)-8-(4-methoxypiperidin-1-yl)pyrimido[5,4-d]pyrimidine-2,4,6-triamine]	< 100 nM
COCCN(CCOC)c1nc(N2CCC(OC)CC2)c2nc(N(CCOC)CCOCCN3C(=O)c4ccccc4C3=O)nc(N3CCC(OC)CC3)c2n1 [Compound 172, 2-(2-(2-((6-(bis(2-methoxyethyl)amino)-4,8-bis(4-methoxypiperidin-1-yl)pyrimido[5,4-d]pyrimidin-2-yl)(2-methoxyethyl)amino)ethoxy)ethyl)isoindoline-1,3-dione]	100 to 500 nM
COCCN(CCOC)c1nc(N2CCC(OC)CC2)c2nc(N(CCOC)CCOC)nc(NCc3cnn(C(C)C)c3)c2n1 [Compound 163, N4-((1-isopropyl-1H-pyrazol-4-yl)methyl)-N2,N2,N6,N6-tetrakis(2-methoxyethyl)-8-(4-methoxypiperidin-1-yl)pyrimido[5,4-d]pyrimidine-2,4,6-triamine]	100 to 500 nM
COCCN(CCOC)c1nc(N2CC(=O)N(C)C(C)(C)C2)c2nc(N(CCO)CCO)nc(N3CCC(OC)CC3)c2n1 [Compound 312, 4-(6-(bis(2-hydroxyethyl)amino)-2-(bis(2-methoxyethyl)amino)-8-(4-methoxypiperidin-1-yl)pyrimido[5,4-d]pyrimidin-4-yl)-1,6,6-trimethylpiperazin-2-one]	100 to 500 nM
COCCN(CCO)c1nc(N2CCN(C)C(=O)C2)c2nc(N(CCO)CCOC)nc(N3CCC(OC)CC3)c2n1 [Compound 306, 4-(2,6-bis((2-hydroxyethyl)(2-methoxyethyl)amino)-8-(4-methoxypiperidin-1-yl)pyrimido[5,4-d]pyrimidin-4-yl)-1-methylpiperazin-2-one]	100 to 500 nM
COCCN(CCOC)c1nc(N2CCc3nocc3C2)c2nc(N(CCOC)CCOC)nc(N3CCN(C)C(=O)C3)c2n1 [Compound 254, 4-(2,6-bis(bis(2-methoxyethyl)amino)-8-(6,7-dihydroisoxazolo[4,3-c]pyridin-5(4H)-yl)pyrimido[5,4-d]pyrimidin-4-yl)-1-methylpiperazin-2-one]	< 100 nM
COCCN(CCOC)c1nc(N2CCC(OC)CC2)c2nc(N(CCOC)CCOC)nc(OCc3cncc(C#N)c3)c2n1 [Compound 158, 5-(((2,6-bis(bis(2-methoxyethyl)amino)-8-(4-methoxypiperidin-1-yl)pyrimido[5,4-d]pyrimidin-4-yl)oxy)methyl)nicotinonitrile]	100 to 500 nM
